Results reported in US6642227B2, “Inhibitors of c-Jun N-terminal kinases (JNK) and other protein kinases” (Vertex Pharmaceuticals Incorporated, priority 2001, dated 2003).

What was measured:
Type in all cases: biochemical
[1] = molecular target: T1, activated JNK3 (Homo sapiens, UniProt P53779); test: JNK inhibition assay (spectrophotometric coupled-enzyme assay)
T1 construct: One such construct encodes amino acid residues Ser40-Glu402 of JNK3α1 and is preceded by Met and Gly residues; Met-Gly dipeptide (initiator Met plus Gly added for the NcoI site) (N); made in house; host or cells: E. coli BL21 (DE3)
T1 sequence (P53779 40-402): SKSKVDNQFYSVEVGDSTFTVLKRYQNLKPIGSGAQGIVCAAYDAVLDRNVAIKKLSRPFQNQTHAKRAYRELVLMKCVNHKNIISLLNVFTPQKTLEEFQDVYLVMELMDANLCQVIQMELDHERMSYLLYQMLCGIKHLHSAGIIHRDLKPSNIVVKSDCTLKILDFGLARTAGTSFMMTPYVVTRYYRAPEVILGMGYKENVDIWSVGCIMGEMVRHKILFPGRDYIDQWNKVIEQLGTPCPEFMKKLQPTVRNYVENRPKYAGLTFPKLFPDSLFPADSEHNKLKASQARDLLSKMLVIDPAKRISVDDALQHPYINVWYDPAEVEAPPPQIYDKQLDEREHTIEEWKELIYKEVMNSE
Excerpt: A BLAST search of the EST database using the published JNK3α1 cDNA as a query identified an EST clone (#632588) that contained the entire coding sequence for human JNK3α1. Polymerase chain reactions (PCR) using pfu polymerase (Strategene) were used to introduce restriction sites into the cDNA for cloning into the pET-15B expression vector at the NcoI and BamHI sites. The protein was expressed in E. coli. Due to the poor solubility of the expressed full-length protein (Met 1-Gln 422), an N-terminally truncated protein starting at Ser residue at position 40 (Ser 40) was produced. This truncation corresponds to Ser 2 of JNK1 and JNK2 proteins, and is preceded by a methionine (initiation) and a glycine residue. The glycine residue was added in order to introduce an NcoI site for cloning into the expression vector. In addition, systematic C-terminal truncations were performed by PCR to identify a construct that give rise to diffraction-quality crystals. One such construct encodes amino acid residues Ser40-Glu402 of JNK3α1 and is preceded by Met and Gly residues.
The construct was prepared by PCR using deoxyoligonucleotides: 5′ […] 3′ (forward primer with initiation codon underlined)(SEQ ID NO:1) and 5′ […] 3′ (reverse primer with stop codon underlined)(SEQ ID NO:2) as primers and was confirmed by DNA sequencing.
E.coli strain BL21 (DE3) (Novagen) was transformed with the JNK3 expression construct and grown at 30° C. in LB supplemented with 100 μg/ml carbenicillin in shaker flasks until the cells were in log phase (OD600˜0.8). Isopropylthio-β-D-[…] (IPTG) was added to a final concentration of 0.8 mM and the cells were harvested 2 hours later by centrifugation.
E. coli cell paste containing JNK3 was resuspended in 10 volumes/g lysis buffer (50 mM HEPES, pH 7.2, containing 10% glycerol (v/v), 100 mM NaCl, 2 mM DTT, 0.1 mM PMSF, 2 μg/ml Pepstatin, lug/ml each of E-64 and Leupeptin). Cells were lysed on ice using a microfluidizer and centrifuged at 100,000×g for 30 min at 4° C. The 100,000×g supernatant was diluted 1:5 with Buffer A (20 mM HEPES, pH 7.0, 10% glycerol (v/v), 2 mM DTT) and purified by SP-Sepharose (Pharmacia) cation-exchange chromatography (column dimensions: 2.6×20 cm) at 4° C. The resin was washed with 5 column volumes of Buffer A, followed by 5 column volumes of Buffer A containing 50 mM NaCl. Bound JNK3 was eluted with a 7.5 column volume linear gradient of 50-300 mM NaCl. JNK3 eluted between 150-200 mM NaCl.
Five mg of JNK3 was diluted to 0.5 mg/ml in 50 mM HEPES buffer, pH 7.5, containing 100 mM NaCl, 5 mM DTT, 20 mM MgCl2 and 1 mM ATP. GST-MKK7(DD) was added at a molar ratio of 1:2.5 GST-MKK7:JNK3. After incubation for 30 minutes at 25° C., the reaction mixture was concentrated 5-fold by ultrafiltration in a Centriprep-30 (Amicon, Beverly, Mass.), diluted to 10 ml and an additional 1 mM ATP added. This procedure was repeated three times to remove ADP and replenish ATP. The final addition of ATP was 5 mM and the mixture incubated overnight at 4° C.
The activated JNK3/GST-MKK7(DD) reaction mixture was exchanged into 50 mM HEPES buffer, pH 7.5, containing 5 mM DTT and 5% glycerol (w/v) by dialysis or ultrafiltration. The reaction mixture was adjusted to 1.1 M potassium phosphate, pH 7.5, and purified by hydrophobic interaction chromatography (at 25° C.) using a Rainin Hydropore column. […] Activated JNK3 (i.e. doubly phosphorylated JNK3) was stored at −70° C. at 0.25-1 mg/ml.
Compounds were assayed for the inhibition of JNK3 by a spectrophotometric coupled-enzyme assay. In this assay, a fixed concentration of activated JNK3 (10 nM) was incubated with various concentrations of a potential inhibitor dissolved in DMSO for 10 minutes at 30° C. in a buffer containing 0.1 M HEPES buffer, pH 7.5, containing 10 mM MgCl2, 2.5 mM phosphoenolpyruvate, 200 μM NADH, 150 μg/mL pyruvate kinase, 50 μg/mL lactate dehydrogenase, and 200 μM EGF receptor peptide. […]

[2] = molecular target: human Lck kinase (UniProt P06239); test: Lck inhibition assay (A: radioactivity-based or B: spectrophotometric coupled-enzyme assay); conditions: read-out: Lck Activity (Ki rating)
Procedure: The compounds were evaluated as inhibitors of human Lck kinase using either a radioactivity-based assay or spectrophotometric assay.
The compounds were assayed as inhibitors of full length bovine thymus Lck kinase (from Upstate Biotechnology, cat. no. 14-106) expressed and purified from baculo viral cells. Lck kinase activity was monitored by following the incorporation of ^33p from ATP into the tyrosine of a random poly Glu-Tyr polymer substrate of composition, Glu:Tyr=4:1 (Sigma, cat. no. P-0275). The following were the final concentrations of the assay components: 0.025 M HEPES, pH 7.6, 10 mM MgCl2, 2 mM DTT, 0.25 mg/ml BSA, 10 μM ATP (1-2 μCi ^33P-ATP per reaction), 5 mg/ml poly Glu-Tyr, and 1-2 units of recombinant human […] kinase. In a typical assay, all the reaction components with the exception of ATP were pre-mixed and aliquoted into assay plate wells. Inhibitors dissolved in DMSO were added to the wells to give a final DMSO concentration of 2.5%. The assay plate was incubated at 30 C. for 10 min before initiating the reaction with ^33P-ATP. After 20 min of reaction, the reactions were quenched with 150 μl of 10% trichloroacetic acid (TCA) containing 20 mM Na3PO4. The quenched samples were then transferred to a 96-well filter plate (Whatman, UNI-Filter GF/F Glass Fiber Filter, cat no. 7700-3310) installed on a filter plate vacuum manifold. Filter plates were washed four times with 10% TCA containing 20 mM Na3PO4 and then 4 times with methanol. 200 μl of scintillation fluid was then added to each well. The plates were sealed and the amount of radioactivity associated with the filters was quantified on a TopCount scintillation counter. The radioactivity incorporated was plotted as a function of the inhibitor concentration. The data was fitted to a competitive inhibition kinetics model to get the Ki for the compound.
(§1) The ADP produced from ATP by the human recombinant Lck kinase-catalyzed phosphorylation of poly Glu-Tyr substrate was quanitified using a coupled enzyme assay (Fox et al (1998) Protein Sci 7, 2249). In this assay one molecule of NADH is oxidised to NAD for every molecule of ADP produced in the kinase reaction. The disappearance of NADH can be conveniently followed at 340 nm.
(§2) The following were the final concentrations of the assay components: 0.025 M HEPES, pH 7.6, 10 mM MgCl2, 2 mM DTT, 5 mg/ml poly Glu-Tyr, and 50 nM of recombinant human Lck kinase. Final concentrations of the components of the coupled enzyme system were 2.5 mM phosphoenolpyruvate, 200 μM NADH, 30 μg/ml pyruvate kinase and 10 μg/ml lactate dehydrogenase.
(§3) In a typical assay, all the reaction components with the exception of ATP were pre-mixed and aliquoted into assay plate wells. Inhibitors dissolved in DMSO were added to the wells to give a final DMSO concentration of 2.5%. The assay plate was incubated at 30° C. for 10 min before initiating the reaction with 150 μM ATP. The absorbance change at 340 nm with time, the rate of the reaction, was monitored on a molecular devices plate reader. The data of rate as a function of the inhibitor concentration was fitted to competitive inhibition kinetics model to get the Ki for the compound.

[3] = molecular target: T2, human Src kinase (Homo sapiens, UniProt P12931); test: Src inhibition assay (A: radioactivity-based or B: spectrophotometric coupled-enzyme assay); conditions: assay A or B not specified; inhibitor concentration not given
T2 construct: full length recombinant human Src kinase; purchased Upstate Biotechnology 14-117; host or cells: baculovirus-infected cells
T2 sequence (P12931 whole entry): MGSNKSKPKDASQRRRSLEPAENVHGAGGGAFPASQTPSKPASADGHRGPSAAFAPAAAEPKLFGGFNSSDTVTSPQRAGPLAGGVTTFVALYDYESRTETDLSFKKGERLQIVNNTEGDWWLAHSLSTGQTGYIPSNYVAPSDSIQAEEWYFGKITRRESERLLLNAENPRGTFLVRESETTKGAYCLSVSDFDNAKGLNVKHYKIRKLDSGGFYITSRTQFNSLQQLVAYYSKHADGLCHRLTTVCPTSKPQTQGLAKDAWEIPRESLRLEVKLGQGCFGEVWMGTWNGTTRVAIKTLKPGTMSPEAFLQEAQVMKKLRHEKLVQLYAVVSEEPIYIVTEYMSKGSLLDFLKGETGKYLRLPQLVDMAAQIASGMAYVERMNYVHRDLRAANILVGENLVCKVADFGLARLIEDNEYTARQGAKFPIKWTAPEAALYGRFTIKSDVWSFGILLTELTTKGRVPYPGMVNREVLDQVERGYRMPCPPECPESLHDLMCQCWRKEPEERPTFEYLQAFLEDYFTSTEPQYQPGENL
Procedure: The compounds were evaluated as inhibitors of human Src kinase using either a radioactivity-based assay or spectrophotometric assay.
The compounds were assayed as inhibitors of full length recombinant human Src kinase (from Upstate Biotechnology, cat. no. 14-117) expressed and purified from baculo viral cells. Src kinase activity was monitored by following the incorporation of ^33p from ATP into the tyrosine of a random poly Glu-Tyr polymer substrate of composition, Glu:Tyr=4:1 (Sigma, cat. no. P-0275). The following were the final concentrations of the assay components: 0.05 M HEPES, pH 7.6, 10 mM MgCl2, 2 mM DTT, 0.25 mg/ml BSA, 10 μM ATP (1-2 uCi ^33P-ATP per reaction), 5 mg/ml poly Glu-Tyr, and 1-2 units of recombinant human Src kinase. In a typical assay, all the reaction components with the exception of ATP were pre-mixed and aliquoted into assay plate wells.
Inhibitors dissolved in DMSO were added to the wells to give a final DMSO concentration of 2.5%. The assay plate was incubated at 30° C. for 10 min before initiating the reaction with ^33P-ATP. After 20 min of reaction, the reactions were quenched with 150 μl of 10% trichloroacetic acid (TCA) containing 20 mM Na3PO4. The quenched samples were then transferred to a 96-well filter plate (Whatman, UNI-Filter GF/F Glass Fiber Filter, cat no. 7700-3310) installed on a filter plate vacuum manifold. Filter plates were washed four times with 10% TCA containing 20 mM Na3PO4 and then 4 times with methanol. 200 μl of scintillation fluid was then added to each well. The plates were sealed and the amount of radioactivity associated with the filters was quantified on a TopCount scintillation counter. The radioactivity incorporated was plotted as a function of the inhibitor concentration. The data was fitted to a competitive inhibition kinetics model to get the Ki for the compound.
as §1, with “Src” for “Lck”
as §2, with “DTT, 0.25” for “DTT, 5”, “and 25” for “and 50”, “human Src” for “human Lck”
as §3, with “30” for “30°”, “100” for “150”, “compettive” for “competitive”

Ki ([1]; activated JNK3 10 nM, 10 μM ATP, 30° C., read-out: JNK3 Activity (Ki class A-C)) [nM]	Ki [2] [nM]	SMILES	Src Activity (percent inhibition class D-F) [3]	JNK3 Activity (percent inhibition class D-F) ([1]; inhibitor concentration not given)
100 to 1000	< 100	Cc1cnc(Nc2ccccc2)nc1-c1sc(SCc2ccc(O)cc2)c(C#N)c1-c1cccc(Cl)c1 [Compound V-1, 4-(3-chloro-phenyl)-2-(4-hydroxy-benzylsulfanyl)-5-(5-methyl-2-phenylamino-pyrimidin-4-yl)-thiophene-3-carbonitrile]	–	–
–	–	CSc1sc(-c2nc(C)cs2)c(C)c1-c1ccnc(Nc2ccccc2)n1 [IIb-1, {4-[4-methyl-2-methylsulfanyl-5-(4-methyl-thiazol-2-yl)-thiophen-3-yl]-pyrimidin-2-yl}-phenylamine]	D (Compounds having an activity designated as “D” provided a percent inhibition less than or equal to 24%)	D (Compounds having an activity designated as “D” provided a percent inhibition less than or equal to 24%)
